Square brackets hold non-standard residues; d marks the D form. Peptide text beside a SMILES is read from it. Ala(indol-4-yl) = N[C@@H](Cc1cccc2[nH]ccc12)C(=O)O; NMeR = CN[C@@H](CCCNC(=N)N)C(=O)O; Tle = CC(C)(C)[C@H](N)C(=O)O
Key:
human NTR1 [1] = target: T1, human NTR1 (Homo sapiens, UniProt P30989); experiment: Competition binding with [3H]NT, membranes of CHO-K1 cells transfected with human NTR1
T1 construct: expressed in transfected cells; host or cells: CHO-K1
Method: CHO-K1 cells were stably transfected with nucleic acid encoding either the human NTR1 or the rat NTR1, and cultured in 150 mm petri plates with 35 mL of Dulbecco-modified Eagle's medium containing 100 μM minimal essential medium nonessential amino acids (GIBCO) supplemented with 5% (v/v) FetalClone II bovine serum product (Hyclone Labs, Logan, Utah). CHO cells (subculture 9–19) were harvested at confluency. Briefly, the medium from each plate was removed by aspiration, and the cells washed with 6 mL of 50 mM Tris-HCl (pH 7.4) and resuspended in 5–10 mL of Tris-HCl by scraping the cells with a rubber spatula. The resuspended cells were placed into a centrifuge tube and collected by centrifugation at 300× g for five minutes at 4° C. in a GPR centrifuge (Beckman Instruments, Fullerton, Calif.). The cellular pellet (in 50 mM Tris-HCl, 1 mM EDTA, pH 7.4) was stored at […] until radioligand binding was performed.
The supernatant was decanted and discarded, and the cellular pellet was resuspended in 2 mL of Tris-HCl, 1 mM EDTA (pH 7.4) followed by homogenization with a Brinkmann Polytron at setting 6 for ten seconds. Centrifugation was repeated as above and the supernatant was decanted and discarded. The resulting final cellular pellet was resuspended in 50 mM Tris-HCl, lmM EDTA, 0.1% bovine serum albumin, and 0.2 mM bacitracin.
Incubation was at 20° C. for 30 minutes. Each reaction was terminated by addition of cold 0.9% NaCl (5×1.5 mL) followed by rapid filtration through a GF/B filter strip that had been pretreated with 0.2% polyethylenimine.

human NTR1 [2] = target: T1, human NTR1; experiment: PI turnover ([3H]IP1) in intact CHO-K1 cells, human NTR1; assay type: cell-based
Method: To measure PI turnover, intact CHO-K1 cells were harvested at about 80% confluency. Cells were detached from the petri plates by removal of culture medium followed by incubation of the cellular monolayer for 20 minutes at 37° C. with gentle shaking in a modified Puck's D1 solution containing 2 mM EGTA. […] Briefly, intact CHO cells were prelabeled with D-myo-[^3H]inositol (18.3 Ci/mmol) in the presence of lithium chloride (final concentration, 10 mM). […] For the experiments described herein, the stimulation time was 30 minutes, and the number of CHO cells per assay tube was 1.5×10^5.

[3] = Degradation in rat plasma (HPLC peak area); assay type: in vitro ADME; details: 25% plasma, 37° C., 0.5 mg/mL polypeptide, read-out: half-time, Plasma Rat (converted)
Text: For the degradation studies, data were plotted in linear form as a semi-log plot with SigmaPlot for Windows Version 4.00. Linear regression on these plots provided the parameters used to calculate the half-time (t1/2) for degradation of each polypeptide. The correlation coefficient (R) for the linear regression was taken as a measure of the goodness-of-fit.

dopamine D2 receptors = target: T2, dopamine D2 receptors (Homo sapiens, UniProt P14416); experiment: Radiolabeled competitive binding, human brain tissue, dopamine
T2 construct: Human brain tissue; from tissue; host or cells: human brain tissue

[4] = Catalepsy bar test in rats; assay type: in vivo, rat
Method: The following experiments were performed to assess the ability of NT69L to cause and influence catalepsy. Male Sprague-Dawley rats (150–250 g) or CD-1 mice (24–26 g) were housed in a temperature-controlled room in groups of five with free access to food and water. The animals were kept on a 12 hour light/dark cycle, and all tests were performed during the light cycle. […] Thirty minutes after injection, the animals were tested for catalepsy. For rats, the test involved simply placing the animal's fore paws on a suspended metal bar 10 mm in diameter, 11 cm above the counter. The time elapsed until the animal's fore paws touch the counter was recorded. […] The cut-off time was 20 seconds, and each animal was tested three times for each time point.

NT binding sites = experiment: [125I]NT binding in brain tissue of rats chronically treated; assay type: in vivo, rat; details: 1 mg/kg ip daily four days, 5 mg/kg day five
Method: The effect of chronic treatment with NT69L on the number of NT binding sites within brain was assessed. Rats were treated daily with NT69L (1 mg/kg; ip) for four days. On day five, the rats were treated with 5 mg/kg (ip) NT69L, tested behaviorally, and then sacrificed. The PAG and rest of brain were dissected from the animal and used in NT binding analysis. Briefly, homogenates were prepared from freshly obtained PAG and the rest of brain of rats according to Goedert et al. (Brain Res. 304, 71–81 (1984)) with the following modifications: the assay buffer contained the peptidase inhibitors 1,10 phenanthroline (1 μM) and aprotonin (5 mg/ml). For PAG and rest of brain binding assays, tissues were incubated with 0.3 nM [^125I]NT (NEN, Boston, Mass.) at room temperature for 30 minutes. Total and nonspecific binding was measured and the binding sites were normalized to polypeptide concentrations by BCA protein determination (Pierce Chemical Co., Rockford, Ill.).

[5] = Body weight and food intake in rats; assay type: in vivo, rat; details: for increase from original body weight at day 15: saline 29%
Method: Two groups of male Sprague-Dawley rats (small and large) and one group of genetically obese Zucker rats were used to study the influence of NT69L on various aspects of body weight. The group of small Sprague-Dawley rats weighed about 270 g at the beginning of the study, while the group of large Sprague-Dawley rats weighted about 400 g. […] The rats had free access to commercial hard rat chow pellets and tap water. During the study, the rats received 100 μL of either saline only or 1 μg/kg, 10 μg/kg, or 1 mg/kg of NT69L on days 1, 2, 7, 8, 11, and 12. Food intake (g), water consumption (mL), and body weight (g) were recorded daily for 15 days. The results were presented as mean ± SEM, or as % of original weight. The data were compared by variance analysis (unpaired or paired Student's t test) and Rank sum test.

[6] = Hot plate test (antinociception, % MPE) in rats

SMILES: CN[C@@H](CCCNC(=N)N)C(=O)N[C@@H](CCCCN)C(=O)N1CCC[C@H]1C(=O)N[C@@H](Cc1cccc2[nH]ccc12)C(=O)N[C@H](C(=O)N[C@@H](CC(C)C)C(=O)O)C(C)(C)C [NT69L] (H-[NMeR]KP[Ala(indol-4-yl)][Tle]L-OH; N-terminus and C-terminus assumed)
- Kd (human NTR1 [1]): 1.55 ± 0.09 nM
- increase in binding affinity at the human receptor versus Eisai (human NTR1 [1]): 60 fold
- EC50 (human NTR1 [2]): 2.3 nM
- improvement in potency at PI turnover versus Eisai, human NTR1 (human NTR1 [2]): about 130 fold
- half-life at 0.5 mg/mL [3]: 10.4 days
- Kd (dopamine D2 receptors): 13300 nM
- catalepsy scores in rats ([4]; 5 mg/kg ip): no effect on catalepsy scores
- haloperidol-induced catalepsy, test compound given after ([4]; 5 mg/kg ip 30 minutes after haloperidol 1 mg/kg ip): reversed
- haloperidol-induced catalepsy, test compound given before ([4]; 5 mg/kg ip 30 minutes before haloperidol 1 mg/kg ip): did not exhibit significant cataleptic behavior
- catalepsy on haloperidol injection after chronic treatment ([4]; after the third and fourth days of NT69L 1 mg/kg ip): exhibited catalepsy
- ED50 reversal of haloperidol-induced catalepsy ([4]; haloperidol 120 μg/kg ip, NT69L ip 40 minutes later, scored at 130 minutes): 0.26 mg/kg
- [125I]NT binding, PAG tissue (NT binding sites; control 2.34): 1.89 dpm/μg protein
- [125I]NT binding, rest of brain tissue (NT binding sites; control 3.1): 2.1 dpm/μg protein
- food intake versus saline controls ([5]; Zucker rats, one to two days post injection): significantly reduced
- increase in original body weight by day 15 ([5]; genetically obese Zucker rats, 1 mg/kg ip, saline 31%): 25%
- reduction in original body weight by day 15 ([5]; large Sprague-Dawley rats, 1 mg/kg ip, saline […] increase): 3.0%
- food intake versus saline controls ([5]; large Sprague-Dawley rats, one to two days post injection): significantly (P<0.003) less
- increase from original body weight at day 15 ([5]; small Sprague-Dawley rats, 1 μg/kg ip): 9.0%
- increase from original body weight at day 15 ([5]; small Sprague-Dawley rats, 10 μg/kg ip): 8.4%
- food intake versus saline controls ([5]; small Sprague-Dawley rats, throughout the experiment): significantly (P<0.003) less
- time up to which peak % MPE of 100% was observed ([6]; 1 mg/kg intraperitoneal): about 200 minutes
- time of Peak % MPE ([6]; 1 mg/kg intraperitoneal, rats): 300 min
- % MPE after the first injection ([6]; 1 mg/kg ip daily, day 1): 100%
- analgesic effect after the second injection ([6]; 1 mg/kg ip daily, day 2): no analgesic effect
- analgesic effect after the third injection ([6]; 1 mg/kg ip daily, day 3): no analgesic effect
- analgesic effect on 5× challenge ([6]; 5 mg/kg ip after four days at 1 mg/kg ip): no analgesic effect
- induction of antinociception (hot plate) ([6]; intraperitoneal administration (NT64L 1 mg/kg)): did induce
- ED50 % MPE ([6]; intraperitoneal, @ 90 min): 0.3 mg/kg
- peak % MPE value ([6]; nasal, 5 mg/kg, at 60 minutes): 70%
- peak % MPE value ([6]; oral, 20 mg/kg): 11%
- time of Peak % MPE ([6]; oral, 20 mg/kg): 30 min

Reference: US7098307B2, “Neo-tryptophan” (Mayo Foundation for Medical Education and Research, priority 1998, dated 2006)
